Source: patent US20230331715A1, “SPIRO[3.3]HEPTANE DERIVATIVES FOR THE TREATMENT AND PROPHYLAXIS OF HEPATITIS B VIRUS INFECTION” (priority 2020, published 2023)
Read-outs that look alike come from different tables or passages of the source.

Legend:
Type in all cases: cell-based
HBeAg = assay: PHH HBV natural infection assay, HBeAg (alphalisa)
Description: (§1) Detailed procedures regarding primary human hepatocyte (PHH) HBV natural infection assay are described as below. One tube of frozen PHH (10 million cells) is thawed in 37° C. water bath and then transferred to 20 mL of PHH thawing medium (Sigma, InVitroGRO HT Medium, Cat. S03319) with gently mixing. The cells were then centrifuged at […] for 5 min, the supernatant was discarded and the tube was refilled with 25 mL of PHH plating medium (Sigma, InVitroGRO CP Medium, Cat. S03317). The tube was shaken very gently to re-suspend all cells, and then 50 µl of cells were transferred to each well 384-well collagen I coated plate with appropriate liquid handling equipment, e.g. Integra VIAFLO384 or Agilent Bravo. The cells were then cultured for 24 hours in a cell incubator. For HBV infection, after PHH attachment on the culture plate, the plating medium was removed and replenished with PHH culture medium containing HBV virus. The PHH culture medium was prepared with Dulbecco’s Modified Eagle Medium (DMEM)/F12 (1: 1 in volume ratio) containing 10% fetal bovine serum (Gibco, Cat. 10099141), 5 ng/mL human epidermal growth factor (Gibco, Cat.PHG0311L), 20 ng/mL dexamethasone (Sigma, Cat.D4902-100mg), 250 ng/mL human recombinant insulin (Gibco, Cat.41400045) and 100 U/mL penicillin. HBV virus at 200 genome equivalent (GE) per cell with 4% PEG8000 (Sigma, Cat.P1458) containing culture medium were added to the PHH culture medium for infection. The cells were then cultured for 24 hours in cell incubator. Then the cell culture supernatant was removed. The HBV-infected PHH were cultured with sandwich culture method with PHH culture medium containing 1% DMSO and 0.25 mg/mL matrix gel for 72 hours. The supernatant was then refreshed with PHH culture medium containing different concentrations of testing compounds for two times with 72-hour interval. At the end of treatment, the supernatant was collected for viral markers measurements, including HBsAg, HBeAg, HBV DNA and cytotoxicity. HBsAg and HBeAg were detected using alphalisa method using their specific antibodies. For HBV DNA detection, HBV DNA Quantitative Fluorescence Diagnostic Kit (Sansure Biotech Inc.) was used following the manufacture’s protocol. Cytotoxicity was determined using Cell Counting Kit-8 (CCK8, Dojindo Molecular Technologies, Inc.).
(§2) The compounds of the present invention were tested for their capacity to inhibit HBsAg and HBeAg as described herein.

HBsAg = assay: PHH HBV natural infection assay, HBsAg (alphalisa)
Description: as §1, §2

[1] = Cytotoxicity in PHH natural infection assay (Cell Counting Kit-8); conditions: human; HBV-infected PHH, CCK8, compound refreshed two times with 72-hour interval
Description: as §1

[2] = read-out: HBeAg IC50, HBV-infected PHH, culture supernatant, compound refreshed two times with 72-hour interval, alphalisa
[3] = read-out: HBsAg IC50, HBV-infected PHH, culture supernatant, compound refreshed two times with 72-hour interval, alphalisa
[4] = Hepatitis B virus, 72 h, read-out: HBeAg IC50, HBV-infected PHH, culture supernatant, compound refreshed two times with 72-hour interval, alphalisa
[5] = Hepatitis B virus, 72 h, read-out: HBsAg IC50, HBV-infected PHH, culture supernatant, compound refreshed two times with 72-hour interval, alphalisa

SMILES	IC50 (HBeAg; [2])	IC50 (HBsAg; [3])	CC50 at 144 h [1]	IC50 (HBeAg; [4])	IC50 (HBsAg; [5])
[H][C@]1(NC(=O)c2ccnc(S(=O)(=O)C3CC3)c2)C[C@@]2(C1)C[C@]([H])(c1nc3cc(Cl)ccc3s1)C2 (single isomer, unassigned) [Example 55-a, (Sa)-N-[6-(5-chloro-1,3-benzothiazol-2-yl)spiro[3.3]heptan-2-yl]-2-cyclopropylsulfonyl-pyridine-4-carboxamide]	1.09 µM	1.56 µM	22.5 µM		
CS(=O)(=O)Cc1cc(C(=O)NC2CC3(C2)CC(c2nc4cc(Cl)ccc4s2)C3)ccn1 (stereo not drawn) [Example 7, N-[6-(5-chloro-1,3-benzothiazol-2-yl)spiro[3.3]heptan-2-yl]-2-(methylsulfonylmethyl)pyridine-4-carboxamide]			> 10 µM	3.09 µM	3.33 µM
CCN(CC)c1cc(C(=O)NC2CC3(C2)CC(c2nc4cc(Cl)ccc4s2)C3)ccn1 (stereo not drawn) [Example 48, N-[6-(5-chloro-1,3-benzothiazol-2-yl)spiro[3.3]heptan-2-yl]-2-(diethylamino)pyridine-4-carboxamide]			> 10 µM	4.96 µM	5.92 µM
O=C(NC1CC2(C1)CC(c1nc3cc(Cl)ccc3s1)C2)c1ccnc(N2CCCC2)c1 (stereo not drawn) [Example 50, N-[6-(5-chloro-1,3-benzothiazol-2-yl)spiro[3.3]heptan-2-yl]-2-pyrrolidin-1-yl-pyridine-4-carboxamide]			> 10 µM	9.63 µM	9.95 µM
O=C(CC1CCCS(=O)(=O)C1)NC1CC2(C1)CC(c1nc3cc(Cl)ccc3s1)C2 (stereo not drawn) [Example 30, N-[6-(5-chloro-1,3-benzothiazol-2-yl)spiro[3.3]heptan-2-yl]-2-(1,1-dioxothian-3-yl)acetamide]			> 10 µM	3.47 µM	3.47 µM
CCN1CC(C(=O)NC2CC3(C2)CC(c2nc4cc(Cl)ccc4s2)C3)CC1=O (stereo not drawn) [Example 31, N-[6-(5-chloro-1,3-benzothiazol-2-yl)spiro[3.3]heptan-2-yl]-1-ethyl-5-oxo-pyrrolidine-3-carboxamide]			> 10 µM	8.29 µM	9.58 µM
Nc1nc(C(=O)NC2CC3(C2)CC(c2nc4cc(Cl)ccc4s2)C3)cs1 (stereo not drawn) [Example 19, 2-amino-N-[6-(5-chloro-1,3-benzothiazol-2-yl)spiro[3.3]heptan-2-yl]thiazole-4-carboxamide]			31.5 µM	6.83 µM	7.55 µM
NS(=O)(=O)c1cccc(C(=O)NC2CC3(C2)CC(c2nc4cc(Cl)ccc4s2)C3)c1 (stereo not drawn) [Example 2, N-[6-(5-chloro-1,3-benzothiazol-2-yl)spiro[3.3]heptan-2-yl]-3-sulfamoyl-benzamide]			> 10 µM	3.33 µM	3.71 µM
N=S(=O)(c1cc(C(=O)NC2CC3(C2)CC(c2nc4cc(Cl)ccc4s2)C3)ccn1)C1CC1 (stereo not drawn) [Example 41, N-[6-(5-chloro-1,3-benzothiazol-2-yl)spiro[3.3]heptan-2-yl]-2-(cyclopropylsulfonimidoyl)pyridine-4-carboxamide]			> 10 µM	0.67 µM	0.9 µM
O=C(NC1CC2(C1)CC(c1nc3ccc(Cl)cc3s1)C2)C1CCS(=O)(=O)C1 (stereo not drawn) [Example 27, N-[6-(6-chloro-1,3-benzothiazol-2-yl)spiro[3.3]heptan-2-yl]-1,1-dioxo-thiolane-3-carboxamide]			> 100 µM	0.56 µM	1.15 µM
Cc1cc(C(=O)NC2CC3(C2)CC(c2nc4cc(Cl)ccc4s2)C3)ccn1 (stereo not drawn) [Example 6, N-[6-(5-chloro-1,3-benzothiazol-2-yl)spiro[3.3]heptan-2-yl]-2-methyl-pyridine-4-carboxamide]			> 10 µM	3.3 µM	3.63 µM
[H][C@]1(NC(=O)c2ccnc(C(N)=O)c2)C[C@@]2(C1)C[C@]([H])(c1nc3cc(Cl)ccc3s1)C2 (single isomer, unassigned) [Example 53-a, (Sa)-N4-[6-(5-chloro-1,3-benzothiazol-2-yl)spiro[3.3]heptan-2-yl]pyridine-2,4-dicarboxamide]	0.24 µM	0.29 µM	36.8 µM		
CNc1cc(C(=O)NC2CC3(C2)CC(c2nc4cc(Cl)ccc4s2)C3)ccn1 (stereo not drawn) [Example 44, N-[6-(5-chloro-1,3-benzothiazol-2-yl)spiro[3.3]heptan-2-yl]-2-(methylamino)pyridine-4-carboxamide]			> 10 µM	3.18 µM	3.24 µM
O=C(NC1CC2(C1)CC(c1nc3cc(Cl)ccc3s1)C2)c1ccc(S(=O)(=O)NC2CCC2)o1 (stereo not drawn) [Example 22, N-[6-(5-chloro-1,3-benzothiazol-2-yl)spiro[3.3]heptan-2-yl]-5-(cyclobutylsulfamoyl)furan-2-carboxamide]			21.9 µM	1 µM	1.39 µM
NC(=O)c1cc(C(=O)NC2CC3(C2)CC(c2nc4cc5c(cc4s2)OCO5)C3)ccn1 (stereo not drawn) [Example 12, N4-[6-([1,3]dioxolo[4,5-f][1,3]benzothiazol-6-yl)spiro[3.3]heptan-2-yl]pyridine-2,4-dicarboxamide]			23.3 µM	6.53 µM	6.58 µM
[H][C@]1(NC(=O)c2ccnc(S(=O)(=O)C3CC3)c2)C[C@]2(C1)C[C@]([H])(c1nc3cc(Cl)ccc3s1)C2 (single isomer, unassigned) [Example 55-b, (Ra)-N-[6-(5-chloro-1,3-benzothiazol-2-yl)spiro[3.3]heptan-2-yl]-2-cyclopropylsulfonyl-pyridine-4-carboxamide]	0.4 µM	0.54 µM	11.6 µM		
O=C(NC1CC2(C1)CC(c1nc3cc(Cl)ccc3s1)C2)C1CCS(=O)(=O)C1 (stereo not drawn) [Example 26, N-[6-(5-chloro-1,3-benzothiazol-2-yl)spiro[3.3]heptan-2-yl]-1,1-dioxo-thiolane-3-carboxamide]			> 100 µM	1.18 µM	1.99 µM
O=C(CC1CS(=O)(=O)C1)NC1CC2(C1)CC(c1nc3cc(Cl)ccc3s1)C2 (stereo not drawn) [Example 28, N-[6-(5-chloro-1,3-benzothiazol-2-yl)spiro[3.3]heptan-2-yl]-2-(1,1-dioxothietan-3-yl)acetamide]			> 10 µM	1.66 µM	3.28 µM
O=C(NC1CC2(C1)CC(c1nc3cc(Cl)ccc3s1)C2)c1ccc(C(F)(F)F)o1 (stereo not drawn) [Example 14, N-[6-(5-chloro-1,3-benzothiazol-2-yl)spiro[3.3]heptan-2-yl]-5-(trifluoromethyl)furan-2-carboxamide]			> 100 µM	2.52 µM	2.48 µM
O=C(NC1CC2(C1)CC(c1nc3cc(Cl)ccc3s1)C2)c1ccnc(NC2CC2)c1 (stereo not drawn) [Example 45, N-[6-(5-chloro-1,3-benzothiazol-2-yl)spiro[3.3]heptan-2-yl]-2-(cyclopropylamino)pyridine-4-carboxamide]			> 10 µM	5.18 µM	6.08 µM
CC(C)(c1cc(C(=O)NC2CC3(C2)CC(c2nc4cc(Cl)ccc4s2)C3)ccn1)S(C)(=O)=O (stereo not drawn) [Example 8, N-[6-(5-chloro-1,3-benzothiazol-2-yl)spiro[3.3]heptan-2-yl]-2-(1-methyl-1-methylsulfonylethyl)pyridine-4-carboxamide]			35.9 µM	1.23 µM	1.89 µM
O=C(NC1CC2(C1)CC(c1nc3ccc(Cl)cc3s1)C2)c1ccnc(S(=O)(=O)C2CC2)c1 (stereo not drawn) [Example 37, N-[6-(6-chloro-1,3-benzothiazol-2-yl)spiro[3.3]heptan-2-yl]-2-cyclopropylsulfonyl-pyridine-4-carboxamide]			10.1 µM	0.2 µM	0.23 µM
O=C(NC1CC2(C1)CC(c1nc3cc(Cl)ccc3s1)C2)C1CCS(=O)(=O)N1 (stereo not drawn) [Example 34, N-[6-(5-chloro-1,3-benzothiazol-2-yl)spiro[3.3]heptan-2-yl]-1,1-dioxo-1,2-thiazolidine-3-carboxamide]			> 10 µM	5.67 µM	7.11 µM
